Measurements published in the supplement of paper PMC13380429.

Experiments:
Details in all cases: 72 h
[1] = test system: Caco-2; assay: cell viability relative to DMSO; higher = less toxic
[2] = test system: Calu-3; assay: as above
[3] = test system: HepG2; assay: as above
[4] = test system: U2OS; assay: as above
[5] = test system: Vero E6; assay: as above
[6] = test system: Caco-2; assay: relative viability EC50 (midpoint between 100% and the lowest measured viability); higher = less toxic
[7] = test system: Calu-3; assay: as above
[8] = test system: HepG2; assay: as above
[9] = test system: U2OS; assay: as above
[10] = test system: Vero E6; assay: as above
[11] = test system: Caco-2; assay: drug sensitivity score (DSS) for viability; higher = more toxic; extreme values may be limits of the assay
[12] = test system: Calu-3; assay: as above
[13] = test system: HepG2; assay: as above
[14] = test system: U2OS; assay: as above
[15] = test system: Vero E6; assay: as above

Structure (SMILES)	cell viability ([1]; 1 nM) [%]	cell viability ([1]; 10 nM) [%]	cell viability ([1]; 100 nM) [%]	cell viability ([1]; 1000 nM) [%]	cell viability ([1]; 10000 nM) [%]	cell viability ([2]; 1 nM) [%]	cell viability ([2]; 10 nM) [%]	cell viability ([2]; 100 nM) [%]	cell viability ([2]; 1000 nM) [%]	cell viability ([2]; 10000 nM) [%]	cell viability ([3]; 1 nM) [%]	cell viability ([3]; 10 nM) [%]	cell viability ([3]; 100 nM) [%]	cell viability ([3]; 1000 nM) [%]	cell viability ([3]; 10000 nM) [%]	cell viability ([4]; 1 nM) [%]	cell viability ([4]; 10 nM) [%]	cell viability ([4]; 100 nM) [%]	cell viability ([4]; 1000 nM) [%]	cell viability ([4]; 10000 nM) [%]	cell viability ([5]; 1 nM) [%]	cell viability ([5]; 10 nM) [%]	cell viability ([5]; 100 nM) [%]	cell viability ([5]; 1000 nM) [%]	cell viability ([5]; 10000 nM) [%]	relative viability EC50 [6] [µM]	relative viability EC50 [7] [µM]	relative viability EC50 [8] [µM]	relative viability EC50 [9] [µM]	relative viability EC50 [10] [µM]	drug sensitivity score [11]	drug sensitivity score [12]	drug sensitivity score [13]	drug sensitivity score [14]	drug sensitivity score [15]
CN(C)CCc1c[nH]c2ccc(Cn3cncn3)cc12 [rizatriptan]	91.9	102	101	97.2	87.7	96.5	107	99.8	97.3	99.1	99	93.5	102	92.8	104	99	106	96.5	98.6	96.5	101	94.8	98.7	99.3	98.8	> 10	> 10	> 10	> 10	> 10	0.2	0	0	0	0
CCCCc1ccc(O)cc1O [rucinol]	102	95.3	83.5	114	106	101	98	83.4	102	83.8	110	87.5	107	92.5	81.5	101	99	99.8	104	96.7	111	84.9	106	91.8	103	> 10	> 10	> 10	> 10	> 10	0	0.1	1.3	0	0
